According to patent US20190031717A1, “MULTI-FUNCTIONAL FUSION POLYPEPTIDE, PREPARATION METHOD THEREOF, AND APPLICATION OF SAME” (NANJING ANJI BIOLOGICAL TECHNOLOGY CO., LTD, priority 2016, published 2019):

How the values were obtained:
Parameters in all cases: concentration or dose not given beside the values
Mycoplasma pneumoniae = experiment: Mouse pneumonia model, mycoplasma; type: in vivo, BALB/C mice; settings: mean ± SD
Experimental: (§1) The mouse pneumonia model was successfully established by the nose-drop method. To build the mouse pneumonia model, BALB/C mice with a body mass of 16-22 g were selected and anesthetized pneumonia chain was prepared after anesthesia with ether on day 0, day 1, and day 2. Staphylococcal fluid, adenovirus concentrate, Mycoplasma pneumoniae, Chlamydia pneumoniae, protozoa, and pneumonia fungi were slowly dripped into the nasal cavity of the mice, so that they enter the tracheobronchial. During the operation process, care was exercised to prevent bacterial fluid from flowing into the esophagus, which leads to inactivation the bacterial fluid. After successful model establishment, the polypeptides of the present invention were administered, and the results were shown in Table 5. […] The results were expressed in average value±standard deviation.

pneumonia fungi = experiment: Mouse pneumonia model, fungal; type: in vivo, BALB/C mice; settings: mean ± SD
Experimental: as §1

Kidney cancer = experiment: MTT assay, tumor cells; type: cell-based, human; settings: 48 hours, mean ± SD
Experimental: (§2) A variety of human tumor cells were cultured in a 37° C., 5% (volume fraction) CO2 incubator to a density of 90% or more, collected by trypsinization, resuspended in a culture medium and counted under a microscope, and the cells were harvested. The concentration was adjusted to 2.0×10^4 cells/mL, the cell suspension was inoculated into a 96-well plate at 100 μL per well and cultured overnight at 37° C. in a 5% (volume fraction) CO2 incubator. After the cells were completely adhered, the polypeptides of the present invention were added as drug-administered groups, and a culture solution containing no drug was used as a blank control group, and the culture solution was diluted to each predetermined concentration. Each dilution was separately added to a 96-well plate at 100 μL per well and incubated for 48 hours at 37° C. in a 5% (volume fraction) CO2 incubator. 20 μL of 5 mg/mL MTT was added to each well of a 96-well plate and incubation was continued for 4 h. The medium was aspirated and dissolved in 100 μL of DMSO per well. The absorbance was measured with a microplate reader at a detection wavelength of 570 nm and a reference wavelength of 630 nm, and the growth inhibition rate was calculated as follows: tumor growth inhibition rate (%)=(1−absorbance value of the administered group/unadministered group absorbance value)×100%, and the experiment was repeated 3 times independently. The results obtained from the test were expressed as mean±standard deviation, and the tumor growth inhibition rate of the unadministered group was 0. The results in Table 7 indicate that the polypeptides of the present invention have a significant inhibitory effect on the growth of various tumors (FIG. 6).

Uterine cancer = experiment: MTT assay, tumor cells; type: cell-based, human; settings: 48 hours, mean ± SD
Experimental: as §2

Head and neck cancer = experiment: MTT assay, tumor cells; type: cell-based, human; settings: 48 hours, mean ± SD
Experimental: as §2

Prostate cancer = experiment: MTT assay, tumor cells; type: cell-based, human; settings: 48 hours, mean ± SD
Experimental: as §2

Pancreatic cancer = experiment: MTT assay, tumor cells; type: cell-based, human; settings: 48 hours, mean ± SD
Experimental: as §2

Melanoma = experiment: MTT assay, tumor cells; type: cell-based, human; settings: 48 hours, mean ± SD
Experimental: as §2

Gastric cancer = experiment: MTT assay, tumor cells; type: cell-based, human; settings: 48 hours, mean ± SD
Experimental: as §2

Ovarian cancer = experiment: MTT assay, tumor cells; type: cell-based, human; settings: 48 hours, mean ± SD
Experimental: as §2

sarcoma = experiment: MTT assay, tumor cells; type: cell-based, human; settings: 48 hours, mean ± SD
Experimental: as §2

Bladder Cancer = experiment: MTT assay, tumor cells; type: cell-based, human; settings: 48 hours, mean ± SD
Experimental: as §2

Breast cancer = experiment: MTT assay, tumor cells; type: cell-based, human; settings: 48 hours, mean ± SD
Experimental: as §2

Liver cancer = experiment: MTT assay, tumor cells; type: cell-based, human; settings: 48 hours, mean ± SD
Experimental: as §2

Hemangioma = experiment: MTT assay, tumor cells; type: cell-based, human; settings: 48 hours, mean ± SD
Experimental: as §2

Colorectal cancer = experiment: MTT assay, tumor cells; type: cell-based, human; settings: 48 hours, mean ± SD
Experimental: as §2

Brain tumor = experiment: MTT assay, tumor cells; type: cell-based, human; settings: 48 hours, mean ± SD
Experimental: as §2

Cervical cancer = experiment: MTT assay, tumor cells; type: cell-based, human; settings: 48 hours, mean ± SD
Experimental: as §2

Esophageal cancer = experiment: MTT assay, tumor cells; type: cell-based, human; settings: 48 hours, mean ± SD
Experimental: as §2

Thyroid cancer = experiment: MTT assay, tumor cells; type: cell-based, human; settings: 48 hours, mean ± SD
Experimental: as §2

Substance | Inhibitory Effects on Various Pulmonary Infections (Mycoplasma pneumoniae) [%] | Inhibitory Effects on Various Pulmonary Infections (pneumonia fungi) [%] | tumor growth inhibition rate, MTT Assay (Kidney cancer) [%] | tumor growth inhibition rate, MTT Assay (Uterine cancer) [%] | tumor growth inhibition rate, MTT Assay (Head and neck cancer) [%] | tumor growth inhibition rate, MTT Assay (Prostate cancer) [%] | tumor growth inhibition rate, MTT Assay (Pancreatic cancer) [%] | tumor growth inhibition rate, MTT Assay (Melanoma) [%] | tumor growth inhibition rate, MTT Assay (Gastric cancer) [%] | tumor growth inhibition rate, MTT Assay (Ovarian cancer) [%] | tumor growth inhibition rate, MTT Assay (sarcoma) [%] | tumor growth inhibition rate, MTT Assay (Bladder Cancer) [%] | tumor growth inhibition rate, MTT Assay (Breast cancer) [%] | tumor growth inhibition rate, MTT Assay (Liver cancer) [%] | tumor growth inhibition rate, MTT Assay (Hemangioma) [%] | tumor growth inhibition rate, MTT Assay (Colorectal cancer) [%] | tumor growth inhibition rate, MTT Assay (Brain tumor) [%] | tumor growth inhibition rate, MTT Assay (Cervical cancer) [%] | tumor growth inhibition rate, MTT Assay (Esophageal cancer) [%] | tumor growth inhibition rate, MTT Assay (Thyroid cancer) [%]
Arg-Gly-Asp-Gly-Gly-Gly-Gly-Ile-Val-Arg-Arg-Ala-Asp-Arg-Ala-Ala-Val-Pro-Gly-Gly-Gly-Gly-Pro-(D-Pyr)-(D-Cys)-Bip-Arg-Gly-Glu [Polypeptide IV] | 40.35 ± 16.87 | 59.28 ± 19.64 | 60.35 ± 20.48 | 78.49 ± 25.33 | 48.89 ± 13.08 | 81.37 ± 26.10 | 74.13 ± 24.16 | 57.25 ± 15.31 | 65.35 ± 21.81 | 91.45 ± 24.46 | 66.39 ± 17.76 | 52.23 ± 13.97 | 92.16 ± 24.65 | 73.42 ± 19.64 | 87.49 ± 27.47 | 85.80 ± 22.95 | 68.85 ± 18.42 | 64.58 ± 28.95 | 66.24 ± 17.72 | 63.05 ± 16.87
Arg-Gly-Asp-Gly-Gly-Gly-Gly-Pro-(D-Pyr)-(D-Cys)-Bip-Arg-Gly-Glu-Gly-Gly-Gly-Gly-Ile-Val-Arg-Arg-Ala-Asp-Arg-Ala-Ala-Val-Pro [Polypeptide III] | 42.44 ± 11.96 | 62.35 ± 17.56 | 67.94 ± 18.90 | 70.93 ± 23.38 | 55.05 ± 12.07 | 73.54 ± 24.09 | 66.99 ± 22.30 | 64.46 ± 14.14 | 73.58 ± 20.14 | 75.87 ± 22.58 | 74.75 ± 16.39 | 58.81 ± 12.90 | 90.11 ± 22.76 | 82.66 ± 18.13 | 85.21 ± 25.36 | 96.60 ± 21.18 | 77.52 ± 17.00 | 68.52 ± 26.72 | 74.58 ± 16.36 | 70.99 ± 15.57
Ile-Val-Arg-Arg-Ala-Asp-Arg-Ala-Ala-Val-Pro-Gly-Gly-Gly-Gly-Arg-Gly-Asp-Gly-Gly-Gly-Gly-Pro-(D-Pyr)-(D-Cys)-Bip-Arg-Gly-Glu [Polypeptide V] | 34.37 ± 14.40 | 50.50 ± 16.77 | 51.41 ± 17.48 | 66.86 ± 21.63 | 41.65 ± 11.17 | 69.32 ± 22.29 | 63.15 ± 20.63 | 48.77 ± 13.08 | 55.67 ± 18.63 | 77.90 ± 20.89 | 56.55 ± 15.16 | 44.49 ± 11.93 | 78.51 ± 21.05 | 62.54 ± 16.77 | 87.49 ± 23.46 | 73.08 ± 19.60 | 58.65 ± 15.73 | 64.58 ± 24.72 | 56.43 ± 15.13 | 53.71 ± 14.40
Ile-Val-Arg-Arg-Ala-Asp-Arg-Ala-Ala-Val-Pro-Gly-Gly-Gly-Gly-Pro-(D-Pyr)-(D-Cys)-Bip-Arg-Gly-Glu-Gly-Gly-Gly-Gly-Arg-Gly-Asp [Polypeptide II] | 39.16 ± 11.16 | 57.52 ± 16.39 | 58.56 ± 17.64 | 64.54 ± 21.82 | 47.44 ± 11.27 | 78.96 ± 22.49 | 71.93 ± 20.82 | 55.55 ± 13.19 | 63.41 ± 18.79 | 88.74 ± 21.07 | 64.42 ± 15.30 | 50.68 ± 12.04 | 89.43 ± 21.24 | 71.24 ± 16.92 | 84.45 ± 23.67 | 83.25 ± 19.77 | 66.81 ± 15.87 | 62.34 ± 24.94 | 64.28 ± 15.27 | 61.18 ± 14.53
Pro-(D-Pyr)-(D-Cys)-Bip-Arg-Gly-Glu-Gly-Gly-Gly-Gly-Arg-Gly-Asp-Gly-Gly-Gly-Gly-Ile-Val-Arg-Arg-Ala-Asp-Arg-Ala-Ala-Val-Pro [Polypeptide VI] | 35.87 ± 12.71 | 52.69 ± 14.80 | 53.64 ± 15.44 | 69.77 ± 19.09 | 43.46 ± 9.86 | 72.33 ± 19.68 | 65.89 ± 18.21 | 50.89 ± 11.54 | 58.09 ± 16.44 | 81.29 ± 18.44 | 59.01 ± 13.39 | 46.43 ± 10.53 | 81.92 ± 18.58 | 65.26 ± 14.80 | 91.30 ± 20.71 | 76.26 ± 17.30 | 61.20 ± 13.88 | 67.39 ± 21.82 | 58.88 ± 13.36 | 56.04 ± 12.71
